Where two headings read alike, the source gives them in different places.
Legend:
SET7/9 [1] = molecular target: T1, SET7/9 (Homo sapiens, UniProt Q8WTS6); conditions: as described, Cheng et al.; cited from earlier work
T1 sequence (Q8WTS6 1-366): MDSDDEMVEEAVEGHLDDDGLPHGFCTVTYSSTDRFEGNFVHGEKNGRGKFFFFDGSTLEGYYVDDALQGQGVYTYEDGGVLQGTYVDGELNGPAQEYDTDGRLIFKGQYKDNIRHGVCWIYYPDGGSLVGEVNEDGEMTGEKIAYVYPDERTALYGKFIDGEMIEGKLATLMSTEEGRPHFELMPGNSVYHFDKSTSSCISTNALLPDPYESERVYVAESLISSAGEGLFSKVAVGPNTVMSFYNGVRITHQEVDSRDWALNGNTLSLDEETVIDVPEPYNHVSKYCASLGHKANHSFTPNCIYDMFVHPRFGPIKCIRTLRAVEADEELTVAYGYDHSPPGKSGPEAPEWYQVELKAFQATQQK

PRMT1 [2] = molecular target: T2, PRMT1 (Homo sapiens, UniProt Q99873); conditions: in-vitro, Cheng et al.; cited from earlier work
Target sequence in this assay (Q99873 whole entry, species assumed): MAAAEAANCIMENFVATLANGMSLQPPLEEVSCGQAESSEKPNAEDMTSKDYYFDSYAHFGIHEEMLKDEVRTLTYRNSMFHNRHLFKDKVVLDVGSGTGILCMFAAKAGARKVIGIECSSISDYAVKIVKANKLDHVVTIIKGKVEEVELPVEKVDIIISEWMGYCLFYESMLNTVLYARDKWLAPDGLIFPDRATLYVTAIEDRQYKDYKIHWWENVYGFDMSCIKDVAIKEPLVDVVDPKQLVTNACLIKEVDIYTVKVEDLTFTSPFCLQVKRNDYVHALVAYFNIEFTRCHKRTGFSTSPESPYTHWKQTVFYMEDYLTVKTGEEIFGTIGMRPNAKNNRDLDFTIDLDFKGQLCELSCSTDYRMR

PRMT1 [3] = molecular target: T2, PRMT1; assay: Target-based virtual screening combined with biochemical test, PRMT inhibition of known inhibitors
Target sequence in this assay (Q99873 whole entry): as the sequence (Q99873 whole entry, species assumed) above

SET7/9 [4] = molecular target: T1, SET7/9; assay: In vitro selectivity test against lysine methyltransferase; format: biochemical
Description: Für die Enzymhemmung wurde ein Assay verwendet, der auf immobilisierten Oligopeptiden als Enzymsubstrate und den entsprechenden Enzymen beruht. Die Quantifizierung der Methylierung erfolgt über einen Antikörper gegen das Dimethylarginin und die Detektion über einen Europium gelabelten Sekundärantikörper. Die potentesten Verbindungen wurden ebenfalls in-vitro auf ihre Selektivität gegenüber SET7/9, einer Lysinmonomethyltransferase untersucht. Die Methodik der verwendeten Testverfahren ist im Detail in der Dissertation von Astrid Spannhoff, "Neue Testsysteme für Histonmethyltransferasen und Histondemethylasen", Albert-Ludwigs-Universität Freiburg, 2007 beschrieben. Der Offenbarungsgehalt dieser Arbeit wird durch Bezugnahme hier eingeschlossen.

| Mode of inhibition (Docking- und Kompetitionsexperimente) (PRMT1 [3]; conclusion from docking and competition experiments) | IC50 (PRMT1 [3]; inhibitors of PRMT from target-based screening) [nM] | IC50 (SET7/9 [4]) [nM] | Molecule | Selektivität gegenüber der Lysinmethyltransferase SET7/9 (SET7/9 [1]) | IC50 (PRMT1 [2]) [nM] |
| --- | --- | --- | --- | --- | --- |
|  |  |  | O=C(Nc1ccc2c(O)cc(S(=O)(=O)O)cc2c1)Nc1ccc2c(O)cc(S(=O)(=O)O)cc2c1 [AMI-1] | selektiv |  |
|  |  |  | O.O.O.O=C([O-])c1ccccc1-c1c2cc(Br)c(=O)c(Br)c-2oc2c(Br)c([O-])c(Br)cc12.[Na+].[Na+] [AMI-5] | dualer Inhibitor | 1400 |
| zum Sustrat kompetitive Verbindungen | 1700 | 11000 | Allantodapson |  |  |

Source: patent EP2221053A1, “Pharmaceutical composition comprising protein methyltransferase I inhibitors and its use for treating tumour diseases” (Albert-Ludwigs-Universität Freiburg, priority 2009, dated 2010)
